According to PubChem BioAssay AID1963853 (Molecular Pharmacology Branch, DTP, NCI, 2024):

Test system: 266295-075-R-J1-PDC spheroid viability
Assay: Anticancer human tumor 266295-075-R-J1-PDC patient-derived head and neck squamous carcinoma cell line growth inhibition [POLQ]
Settings: spheroids with HUVEC and MSC; for IC50: curve of first compound; for viability, T/C: stronger effect = lower value
Method in brief: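 Growth inhibition in 3D: complex spheroids (tumor PDC, HUVEC, MSC) treated with POLQ inhibitor combinations; where Cmax unknown, highest tested concentration 10 microM, except SN-38 at 1 microM.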

[1] = second compound 0.0316 µM, first compound 0.00316 µM
[2] = second compound 0.0316 µM, first compound 0.01 µM
[3] = second compound 0.0316 µM, first compound 0.0316 µM
[4] = second compound 0.0316 µM, first compound 0.1 µM
[5] = second compound 0.1 µM, first compound 0.00316 µM
[6] = second compound 0.1 µM, first compound 0.01 µM
[7] = second compound 0.1 µM, first compound 0.0316 µM
[8] = second compound 0.1 µM, first compound 0.1 µM
[9] = second compound 0.316 µM, first compound 0.00316 µM
[10] = second compound 0.316 µM, first compound 0.01 µM
[11] = second compound 0.316 µM, first compound 0.0316 µM
[12] = second compound 0.316 µM, first compound 0.1 µM
[13] = second compound 1 µM, first compound 0.00316 µM
[14] = second compound 1 µM, first compound 0.01 µM
[15] = second compound 1 µM, first compound 0.0316 µM
[16] = second compound 1 µM, first compound 0.1 µM
[17] = second compound 3.16 µM, first compound 0.00316 µM
[18] = second compound 3.16 µM, first compound 0.01 µM
[19] = second compound 3.16 µM, first compound 0.0316 µM
[20] = second compound 3.16 µM, first compound 0.1 µM
[21] = second compound 10 µM, first compound 0.00316 µM
[22] = second compound 10 µM, first compound 0.01 µM
[23] = second compound 10 µM, first compound 0.0316 µM
[24] = second compound 10 µM, first compound 0.1 µM
[25] = second compound 0.0316 µM, first compound 0.316 µM
[26] = second compound 0.0316 µM, first compound 1 µM
[27] = second compound 0.1 µM, first compound 0.316 µM
[28] = second compound 0.1 µM, first compound 1 µM
[29] = second compound 0.316 µM, first compound 0.316 µM
[30] = second compound 0.316 µM, first compound 1 µM
[31] = second compound 1 µM, first compound 0.316 µM
[32] = second compound 1 µM, first compound 1 µM
[33] = second compound 3.16 µM, first compound 0.316 µM
[34] = second compound 3.16 µM, first compound 1 µM
[35] = second compound 10 µM, first compound 0.316 µM
[36] = second compound 10 µM, first compound 1 µM
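Also: spheroids exposed to compounds for seven days before readout.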

CC[C@@]1(O)C(=O)OCc2c1cc1n(c2=O)Cc2cc3c(CN(C)C)c(O)ccc3nc2-1 + COC1C(OC(N)=O)C(O)C(Oc2ccc3c(O)c(NC(=O)c4ccc(O)c(CC=C(C)C)c4)c(=O)oc3c2C)OC1(C)C
IC50 (second compound 0.0316 µM): > 100 nM
IC50 (second compound 0.1 µM): > 100 nM
IC50 (second compound 0.316 µM): > 100 nM
IC50 (second compound 1 µM): > 100 nM
IC50 (second compound 3.16 µM): > 100 nM
IC50 (second compound 10 µM): > 100 nM
viability, T/C (second compound 0.0316 µM, first compound 0.000316 µM): 84.1%
viability, T/C (second compound 0.0316 µM, first compound 0.001 µM): 99.8%
viability, T/C [1]: 84.9%
viability, T/C [2]: 96.9%
viability, T/C [3]: 89.4%
viability, T/C [4]: 104%
viability, T/C (second compound 0.1 µM, first compound 0.000316 µM): 87.2%
viability, T/C (second compound 0.1 µM, first compound 0.001 µM): 87.7%
viability, T/C [5]: 90.5%
viability, T/C [6]: 100%
viability, T/C [7]: 103%
viability, T/C [8]: 88%
viability, T/C (second compound 0.316 µM, first compound 0.000316 µM): 102%
viability, T/C (second compound 0.316 µM, first compound 0.001 µM): 85.4%
viability, T/C [9]: 75.8%
viability, T/C [10]: 98.2%
viability, T/C [11]: 89.4%
viability, T/C [12]: 89.1%
viability, T/C (second compound 1 µM, first compound 0.000316 µM): 99%
viability, T/C (second compound 1 µM, first compound 0.001 µM): 90.8%
viability, T/C [13]: 109%
viability, T/C [14]: 89.2%
viability, T/C [15]: 114%
viability, T/C [16]: 100%
viability, T/C (second compound 3.16 µM, first compound 0.000316 µM): 114%
viability, T/C (second compound 3.16 µM, first compound 0.001 µM): 97%
viability, T/C [17]: 85.3%
viability, T/C [18]: 91.2%
viability, T/C [19]: 88.3%
viability, T/C [20]: 96.9%
viability, T/C (second compound 10 µM, first compound 0.000316 µM): 95.8%
viability, T/C (second compound 10 µM, first compound 0.001 µM): 98.5%
viability, T/C [21]: 97.8%
viability, T/C [22]: 107%
viability, T/C [23]: 95.4%
viability, T/C [24]: 94.5%

CCc1c2c(nc3ccc(O)cc13)-c1cc3c(c(=O)n1C2)COC(=O)[C@]3(O)CC + COC1C(OC(N)=O)C(O)C(Oc2ccc3c(O)c(NC(=O)c4ccc(O)c(CC=C(C)C)c4)c(=O)oc3c2C)OC1(C)C
IC50 (second compound 0.0316 µM): > 1000 nM
IC50 (second compound 0.1 µM): > 1000 nM
IC50 (second compound 0.316 µM): > 1000 nM
IC50 (second compound 1 µM): > 1000 nM
IC50 (second compound 3.16 µM): > 1000 nM
IC50 (second compound 10 µM): > 1000 nM
viability, T/C [1]: 91%
viability, T/C [2]: 109%
viability, T/C [3]: 89.8%
viability, T/C [4]: 105%
viability, T/C [25]: 96.7%
viability, T/C [26]: 70.2%
viability, T/C [5]: 90.1%
viability, T/C [6]: 99.2%
viability, T/C [7]: 86.6%
viability, T/C [8]: 103%
viability, T/C [27]: 108%
viability, T/C [28]: 79.3%
viability, T/C [9]: 99.7%
viability, T/C [10]: 82.9%
viability, T/C [11]: 85.6%
viability, T/C [12]: 109%
viability, T/C [29]: 100%
viability, T/C [30]: 69.7%
viability, T/C [13]: 93.5%
viability, T/C [14]: 79.2%
viability, T/C [15]: 91.1%
viability, T/C [16]: 94.5%
viability, T/C [31]: 99.5%
viability, T/C [32]: 69.9%
viability, T/C [17]: 84.4%
viability, T/C [18]: 90.6%
viability, T/C [19]: 97.9%
viability, T/C [20]: 104%
viability, T/C [33]: 96.8%
viability, T/C [34]: 65.5%
viability, T/C [21]: 89.5%
viability, T/C [22]: 89%
viability, T/C [23]: 107%
viability, T/C [24]: 112%
viability, T/C [35]: 106%
viability, T/C [36]: 55.4%

Nc1ccn(C2OC(CO)C(O)C2(F)F)c(=O)n1 (stereo unspecified) + COC1C(OC(N)=O)C(O)C(Oc2ccc3c(O)c(NC(=O)c4ccc(O)c(CC=C(C)C)c4)c(=O)oc3c2C)OC1(C)C
IC50 (second compound 0.0316 µM): > 10000 nM
IC50 (second compound 0.1 µM): > 10000 nM
IC50 (second compound 0.316 µM): > 10000 nM
IC50 (second compound 1 µM): > 10000 nM
IC50 (second compound 3.16 µM): > 10000 nM
IC50 (second compound 10 µM): > 10000 nM
viability, T/C [3]: 109%
viability, T/C [4]: 82%
viability, T/C [25]: 77.3%
viability, T/C [26]: 101%
viability, T/C (second compound 0.0316 µM, first compound 3.16 µM): 81.3%
viability, T/C (second compound 0.0316 µM, first compound 10 µM): 77.9%
viability, T/C [7]: 107%
viability, T/C [8]: 91.9%
viability, T/C [27]: 82.6%
viability, T/C [28]: 84%
viability, T/C (second compound 0.1 µM, first compound 3.16 µM): 91.1%
viability, T/C (second compound 0.1 µM, first compound 10 µM): 75.2%
viability, T/C [11]: 100%
viability, T/C [12]: 85.9%
viability, T/C [29]: 90.8%
viability, T/C [30]: 82.4%
viability, T/C (second compound 0.316 µM, first compound 3.16 µM): 78.7%
viability, T/C (second compound 0.316 µM, first compound 10 µM): 77.1%
viability, T/C [15]: 104%
viability, T/C [16]: 78.1%
viability, T/C [31]: 87%
viability, T/C [32]: 84.5%
viability, T/C (second compound 1 µM, first compound 3.16 µM): 93.6%
viability, T/C (second compound 1 µM, first compound 10 µM): 87.4%
viability, T/C [19]: 105%
viability, T/C [20]: 102%
viability, T/C [33]: 89.6%
viability, T/C [34]: 81.8%
viability, T/C (second compound 3.16 µM, first compound 3.16 µM): 85.3%
viability, T/C (second compound 3.16 µM, first compound 10 µM): 83.2%
viability, T/C [23]: 109%
viability, T/C [24]: 87.2%
viability, T/C [35]: 84.6%
viability, T/C [36]: 97.6%
viability, T/C (second compound 10 µM, first compound 3.16 µM): 82.3%
viability, T/C (second compound 10 µM, first compound 10 µM): 84.9%
